According to patent US4537776A, “Penetrating topical pharmaceutical compositions containing N-(2-hydroxyethyl) pyrrolidone” (priority 1983, dated 1985):

Assay: Penetration study, Franz diffusion apparatus, human skin (*)
Format: in vitro ADME
Settings: Example 8; for Reduction of penetration on addition of the compound (in words): results similar to octanoic acid (reduces penetration by 50%)
Procedure: The following Penetration Studies carried out in the following manner. […] A normal saline solution is added to the lower diffusion cell, abutting the subcutaneous side of the skin. The test composition (comprising a solution of active or actives added to the carrier at the indicated formulation in a conventional manner by thoroughly mixing) is added to the diffusion cell abutting the epidermal side of the skin.
This cell assembly is kept at a constant temperature of about 31° C. At appropriate or desired intervals (these are the time designations given in the following examples) each diffusion cell assembly is opened and the diffusate from the cell abutting the subcutaneous side of the skin is withdrawn. Drug actives in a diffusate is measured using standard analytical techniques. Each trial is run on a separate sample of skin.

Reduction of penetration on addition of the compound (in words)	Reduction of penetration on addition of the compound (added to 1% Triamcinolone in Propylene Glycol + 2% C14 OH, human skin, 0-72 hrs.) [%]	Structure (SMILES)
Substantially similar results		CCCCCCCCCCCCCCCCO [cetyl alcohol]
	50	CCCCCCCC(=O)O [octanoic acid]
Substantially similar results		CCCCCCCCCC(=O)O [decanoic acid]

Structure (SMILES)	Reduction of penetration on addition of the compound (in words)	Reduction of penetration on addition of the compound (added to 1% Triamcinolone in Propylene Glycol + 2% C14 OH, human skin, 0-72 hrs.) [%]
CCCCCCCCCCCCCCCCCCO [stearyl alcohol]	Substantially similar results	
